From ChEMBL document CHEMBL4610014, “Discovery of novel 2,4-disubstituted pyrimidines as Aurora kinase inhibitors” (Bioorg Med Chem Lett, 2020)
pIC50: −log10 of the molar value. Each block holds one compound with its values, some of them ahead of it. The source made the active and inactive calls. The calls are words filed in the database; no cut-off is given here.

Tests used:
MCF7 = experiment: Antiproliferative activity against human MCF7 cells assessed as reduction in cell viability after 72 hrs by MTT assay; type: functional, cell-based; settings: MCF7, 72 h
HCT-116 [1] = experiment: Antiproliferative activity against human HCT116 cells assessed as reduction in cell viability after 72 hrs by MTT assay; type: functional, cell-based; settings: HCT-116, 72 h
A549 = experiment: Antiproliferative activity against human A549 cells assessed as reduction in cell viability after 72 hrs by MTT assay; type: functional, cell-based; settings: A549, 72 h
Aurora kinase B [2] = biological target: T1, Aurora kinase B (Homo sapiens, UniProt Q96GD4); experiment: Inhibition of Aurora B (unknown origin) after 1 hr in presence of ATP by Kinase-Glo reagent-based luminescence assay
T1 sequence (Q96GD4 whole entry, canonical isoform): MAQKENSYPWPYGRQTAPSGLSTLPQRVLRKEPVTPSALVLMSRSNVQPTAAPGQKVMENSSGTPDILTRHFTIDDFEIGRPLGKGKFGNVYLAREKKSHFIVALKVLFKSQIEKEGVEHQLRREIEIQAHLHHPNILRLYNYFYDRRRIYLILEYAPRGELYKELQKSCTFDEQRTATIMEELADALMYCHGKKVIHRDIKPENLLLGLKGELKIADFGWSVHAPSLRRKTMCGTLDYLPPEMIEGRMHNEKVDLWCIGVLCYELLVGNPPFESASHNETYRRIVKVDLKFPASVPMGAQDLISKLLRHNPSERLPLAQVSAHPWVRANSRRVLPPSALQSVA

[3] = biological target: Phosphatidylinositol 4,5-bisphosphate 3-kinase catalytic subunit alpha isoform (Homo sapiens) (UniProt P42336); experiment: Inhibition of PI3Kalpha (unknown origin) at 1 uM after 1 hr in presence of ATP by Kinase-Glo reagent-based luminescence assay relative to control
Chain of Phosphatidylinositol 4,5-bisphosphate 3-kinase catalytic subunit alpha isoform (Homo sapiens) (P42336 whole entry, canonical isoform): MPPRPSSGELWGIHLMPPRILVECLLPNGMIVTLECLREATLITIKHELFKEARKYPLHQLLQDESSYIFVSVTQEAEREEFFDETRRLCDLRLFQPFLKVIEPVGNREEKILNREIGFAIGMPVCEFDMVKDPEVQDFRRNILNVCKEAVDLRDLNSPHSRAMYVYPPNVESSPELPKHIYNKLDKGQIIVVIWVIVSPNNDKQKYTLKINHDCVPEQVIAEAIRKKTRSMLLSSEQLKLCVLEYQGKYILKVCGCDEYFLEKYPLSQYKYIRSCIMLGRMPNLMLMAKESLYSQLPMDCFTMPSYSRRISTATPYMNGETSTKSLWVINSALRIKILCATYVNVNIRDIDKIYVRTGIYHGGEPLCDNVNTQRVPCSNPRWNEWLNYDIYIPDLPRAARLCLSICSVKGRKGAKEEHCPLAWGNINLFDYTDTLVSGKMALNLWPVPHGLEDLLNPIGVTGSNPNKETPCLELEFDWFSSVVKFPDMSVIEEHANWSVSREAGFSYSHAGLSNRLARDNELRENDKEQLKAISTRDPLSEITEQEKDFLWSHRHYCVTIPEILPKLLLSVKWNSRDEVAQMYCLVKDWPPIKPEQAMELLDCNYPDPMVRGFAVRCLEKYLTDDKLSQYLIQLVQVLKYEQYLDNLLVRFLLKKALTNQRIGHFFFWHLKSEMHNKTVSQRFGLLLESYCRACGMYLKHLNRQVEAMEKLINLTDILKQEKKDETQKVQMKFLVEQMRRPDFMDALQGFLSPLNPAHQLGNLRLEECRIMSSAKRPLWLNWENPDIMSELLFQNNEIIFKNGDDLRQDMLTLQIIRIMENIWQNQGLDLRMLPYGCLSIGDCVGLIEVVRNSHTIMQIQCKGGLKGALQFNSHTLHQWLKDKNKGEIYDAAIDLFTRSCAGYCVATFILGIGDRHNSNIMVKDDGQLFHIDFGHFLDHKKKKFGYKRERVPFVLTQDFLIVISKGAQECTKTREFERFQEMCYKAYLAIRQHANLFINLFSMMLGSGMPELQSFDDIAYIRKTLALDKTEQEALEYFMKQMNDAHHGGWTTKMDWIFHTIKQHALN

[4] = biological target: Vascular endothelial growth factor receptor 2 (Homo sapiens) (UniProt P35968); experiment: Inhibition of VEGFR2 (unknown origin) at 1 uM after 1 hr in presence of ATP by Kinase-Glo reagent-based luminescence assay relative to control
Chain of Vascular endothelial growth factor receptor 2 (Homo sapiens) (P35968 whole entry): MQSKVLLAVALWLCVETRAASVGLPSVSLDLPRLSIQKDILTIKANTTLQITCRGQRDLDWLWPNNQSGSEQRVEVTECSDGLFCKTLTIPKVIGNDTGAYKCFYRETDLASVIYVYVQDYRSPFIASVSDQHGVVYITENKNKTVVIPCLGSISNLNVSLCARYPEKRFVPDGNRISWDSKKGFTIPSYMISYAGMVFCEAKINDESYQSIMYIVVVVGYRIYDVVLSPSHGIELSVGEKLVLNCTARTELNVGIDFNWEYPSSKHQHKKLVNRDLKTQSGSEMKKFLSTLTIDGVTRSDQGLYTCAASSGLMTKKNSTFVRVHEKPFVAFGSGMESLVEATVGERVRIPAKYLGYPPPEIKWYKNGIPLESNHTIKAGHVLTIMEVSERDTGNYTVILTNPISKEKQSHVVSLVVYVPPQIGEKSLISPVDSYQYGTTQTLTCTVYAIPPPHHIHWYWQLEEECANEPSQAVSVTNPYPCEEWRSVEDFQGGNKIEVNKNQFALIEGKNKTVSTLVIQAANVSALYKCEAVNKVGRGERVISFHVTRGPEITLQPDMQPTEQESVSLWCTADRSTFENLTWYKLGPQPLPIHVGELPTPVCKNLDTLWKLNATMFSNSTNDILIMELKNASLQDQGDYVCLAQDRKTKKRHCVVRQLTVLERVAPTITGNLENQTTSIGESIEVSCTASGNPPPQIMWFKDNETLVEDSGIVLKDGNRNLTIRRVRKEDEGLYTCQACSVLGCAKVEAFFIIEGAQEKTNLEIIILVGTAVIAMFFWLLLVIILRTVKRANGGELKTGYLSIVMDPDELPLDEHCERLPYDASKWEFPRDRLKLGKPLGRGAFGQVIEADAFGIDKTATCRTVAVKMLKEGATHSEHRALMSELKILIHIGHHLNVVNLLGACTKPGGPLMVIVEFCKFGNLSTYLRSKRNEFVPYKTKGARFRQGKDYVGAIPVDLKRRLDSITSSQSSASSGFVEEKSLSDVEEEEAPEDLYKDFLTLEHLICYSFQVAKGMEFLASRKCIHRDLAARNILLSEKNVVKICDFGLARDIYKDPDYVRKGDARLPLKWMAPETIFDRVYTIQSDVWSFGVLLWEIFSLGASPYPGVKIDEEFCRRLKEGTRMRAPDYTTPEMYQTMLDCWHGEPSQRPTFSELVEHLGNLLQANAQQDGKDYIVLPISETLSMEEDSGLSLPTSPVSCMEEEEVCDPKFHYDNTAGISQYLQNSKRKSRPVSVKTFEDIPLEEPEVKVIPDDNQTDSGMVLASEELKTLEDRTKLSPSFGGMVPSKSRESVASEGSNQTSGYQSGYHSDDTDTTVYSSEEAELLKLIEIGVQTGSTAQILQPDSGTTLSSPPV

[5] = biological target: Fibroblast growth factor receptor 1 (Homo sapiens) (UniProt P11362); experiment: Inhibition of FGFR1 (unknown origin) at 1 uM after 1 hr in presence of ATP by Kinase-Glo reagent-based luminescence assay relative to control
Chain of Fibroblast growth factor receptor 1 (Homo sapiens) (P11362 22-822 limits assumed): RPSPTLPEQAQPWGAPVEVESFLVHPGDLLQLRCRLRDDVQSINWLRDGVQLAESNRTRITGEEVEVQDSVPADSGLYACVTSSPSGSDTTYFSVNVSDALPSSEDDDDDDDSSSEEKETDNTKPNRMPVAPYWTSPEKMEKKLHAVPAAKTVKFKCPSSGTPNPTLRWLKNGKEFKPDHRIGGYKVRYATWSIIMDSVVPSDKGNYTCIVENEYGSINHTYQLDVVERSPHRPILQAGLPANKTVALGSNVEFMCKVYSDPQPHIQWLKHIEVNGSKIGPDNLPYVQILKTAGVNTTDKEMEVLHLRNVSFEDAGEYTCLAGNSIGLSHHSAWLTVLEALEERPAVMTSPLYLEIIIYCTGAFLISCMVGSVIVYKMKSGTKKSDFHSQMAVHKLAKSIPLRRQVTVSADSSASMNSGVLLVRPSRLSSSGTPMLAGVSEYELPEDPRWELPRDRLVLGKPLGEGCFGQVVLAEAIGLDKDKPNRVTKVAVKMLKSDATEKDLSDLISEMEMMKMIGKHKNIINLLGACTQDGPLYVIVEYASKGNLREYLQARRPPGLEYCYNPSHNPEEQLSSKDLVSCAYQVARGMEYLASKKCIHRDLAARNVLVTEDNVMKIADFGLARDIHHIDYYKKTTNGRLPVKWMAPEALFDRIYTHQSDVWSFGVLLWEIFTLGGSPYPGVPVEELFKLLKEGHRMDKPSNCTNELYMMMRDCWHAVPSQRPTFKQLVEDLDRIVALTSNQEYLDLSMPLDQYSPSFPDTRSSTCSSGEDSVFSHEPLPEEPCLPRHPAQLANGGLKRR

Aurora kinase C = biological target: T2, Aurora kinase C (Homo sapiens, UniProt Q9UQB9)
T2 sequence (Q9UQB9 whole entry): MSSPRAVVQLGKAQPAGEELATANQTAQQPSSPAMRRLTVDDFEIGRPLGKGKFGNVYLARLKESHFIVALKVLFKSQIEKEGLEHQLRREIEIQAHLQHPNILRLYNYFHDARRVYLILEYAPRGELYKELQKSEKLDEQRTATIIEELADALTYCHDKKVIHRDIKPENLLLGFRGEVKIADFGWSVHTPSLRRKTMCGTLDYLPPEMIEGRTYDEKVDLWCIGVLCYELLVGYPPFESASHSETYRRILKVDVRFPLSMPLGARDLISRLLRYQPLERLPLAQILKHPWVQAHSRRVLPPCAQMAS
Description: Inhibition of recombinant full-length His-tagged human Aurora C expressed in baculovirus expression system

HCT-116 [6] = experiment: Induction of apoptosis in human HCT116 cells assessed as viable cells at 1 uM after 48 hrs by Annexin-V/PI-staining based flow cytometry (reference value: 89.72%); type: functional; settings: HCT-116, 48 h, read-out: Activity
HCT-116 [7] = experiment: Induction of apoptosis in human HCT116 cells assessed as early apoptotic cells at 0.1 uM after 48 hrs by Annexin-V/PI-staining based flow cytometry (reference value: 0.54%); type: functional
HCT-116 [8] = experiment: Induction of apoptosis in human HCT116 cells assessed as necrotic cells after 48 hrs by Annexin-V/PI-staining based flow cytometry; type: functional, cell-based
HCT-116 [9] = experiment: Induction of apoptosis in human HCT116 cells assessed as viable cells at 0.5 uM after 48 hrs by Annexin-V/PI-staining based flow cytometry (reference value: 89.72%); type: functional; settings: HCT-116, 48 h, read-out: Activity
HCT-116 [10] = experiment: Induction of apoptosis in human HCT116 cells assessed as late apoptotic cells at 1 uM after 48 hrs by Annexin-V/PI-staining based flow cytometry (reference value: 3.34%); type: functional
HCT-116 [11] = experiment: Induction of apoptosis in human HCT116 cells assessed as necrotic cells at 0.5 uM after 48 hrs by Annexin-V/PI-staining based flow cytometry (reference value: […]); type: functional
Aurora kinase B [12] = biological target: T1, Aurora kinase B; experiment: Inhibition of Aurora B in human HCT116 cells assessed as reduction in phosphorylation at Thr232 residue at 0.5 to 5 uM after 12 hrs by Western blot analysis; type: cell-based; settings: HCT-116
HCT-116 [13] = experiment: Induction of apoptosis in human HCT116 cells assessed as late apoptotic cells at 0.5 uM after 48 hrs by Annexin-V/PI-staining based flow cytometry (reference value: 3.34%); type: functional
[14] = biological target: T3, Aurora kinase A (Homo sapiens) (UniProt O14965); experiment: Inhibition of Aurora A in human HCT116 cells assessed as reduction in phosphorylation at Thr288 residue at 0.5 to 5 uM after 12 hrs by Western blot analysis; type: cell-based; settings: HCT-116
T3 sequence (whole entry): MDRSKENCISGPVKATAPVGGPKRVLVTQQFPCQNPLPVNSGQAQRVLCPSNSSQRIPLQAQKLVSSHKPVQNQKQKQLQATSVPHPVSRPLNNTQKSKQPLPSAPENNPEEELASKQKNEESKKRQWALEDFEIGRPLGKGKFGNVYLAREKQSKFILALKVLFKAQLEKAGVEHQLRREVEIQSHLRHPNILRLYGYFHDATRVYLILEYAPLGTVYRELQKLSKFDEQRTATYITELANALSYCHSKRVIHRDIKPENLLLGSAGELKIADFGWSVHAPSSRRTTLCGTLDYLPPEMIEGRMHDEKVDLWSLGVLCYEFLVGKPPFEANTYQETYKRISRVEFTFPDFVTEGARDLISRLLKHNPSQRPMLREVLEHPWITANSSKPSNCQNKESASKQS

HCT-116 [15] = experiment: Induction of apoptosis in human HCT116 cells assessed as viable cells at 0.1 uM after 48 hrs by Annexin-V/PI-staining based flow cytometry (reference value: 89.72%); type: functional; settings: HCT-116, 48 h, read-out: Activity
HCT-116 [16] = experiment: Induction of apoptosis in human HCT116 cells assessed as late apoptotic cells at 0.1 uM after 48 hrs by Annexin-V/PI-staining based flow cytometry (reference value: 3.34%); type: functional
HCT-116 [17] = experiment: Induction of apoptosis in human HCT116 cells assessed as necrotic cells at 0.1 uM after 48 hrs by Annexin-V/PI-staining based flow cytometry (reference value: […]); type: functional
HCT-116 [18] = experiment: Induction of apoptosis in human HCT116 cells assessed as early apoptotic cells at 1 uM after 48 hrs by Annexin-V/PI-staining based flow cytometry (reference value: 0.54%); type: functional
Aurora kinase A = biological target: T4, Aurora kinase A (Homo sapiens, UniProt O14965); experiment: Inhibition of Aurora A (unknown origin) after 1 hr in presence of ATP by Kinase-Glo reagent-based luminescence assay
T4 sequence (O14965 whole entry): T3 sequence (whole entry)

HCT-116 [19] = experiment: Induction of apoptosis in human HCT116 cells assessed as increase in bax protein expression at 0.5 to 5 uM after 12 hrs by Western blot analysis; type: functional, cell-based
HCT-116 [20] = experiment: Induction of apoptosis in human HCT116 cells assessed as early apoptotic cells at 0.5 uM after 48 hrs by Annexin-V/PI-staining based flow cytometry (reference value: 0.54%); type: functional
HCT-116 [21] = experiment: Induction of apoptosis in human HCT116 cells assessed as decrease in bcl-xl protein expression at 0.5 to 5 uM after 12 hrs by Western blot analysis; type: functional, cell-based
HCT-116 [22] = experiment: Induction of apoptosis in human HCT116 cells assessed as necrotic cells at 1 uM after 48 hrs by Annexin-V/PI-staining based flow cytometry (reference value: […]); type: functional

pIC50 (MCF7): 4.42
pIC50 (HCT-116 [1]): 4.78
pIC50 (A549): 4.73
SMILES: O=C(Nc1ccc(Nc2nccc(NC3CC3)n2)cc1)Nc1ccc(Cl)c(C(F)(F)F)c1

pIC50 (MCF7): 4.55
pIC50 (HCT-116 [1]): 5.09
pIC50 (A549): 4.73
SMILES: O=C(Nc1ccc(Nc2nccc(Nc3ccccc3Cl)n2)cc1)Nc1ccc(Cl)c(C(F)(F)F)c1

pIC50 (MCF7): 4.66
pIC50 (HCT-116 [1]): 5.27
pIC50 (A549): 4.93
SMILES: O=C(Nc1ccc(Cl)cc1)Nc1ccc(Nc2nccc(NC3CCCC3)n2)cc1

pIC50 (Aurora kinase B [2]): 6.48
pIC50 (MCF7): 4.72
pIC50 (HCT-116 [1]): 5.96
pIC50 (A549): 5.27
inhibition [3]: 16.8%
inhibition [4]: 4.5%
inhibition [5]: < 1%
SMILES: O=C(Nc1ccc(Nc2nccc(NC3CCCC3)n2)cc1)NC1CCCCC1

pIC50 (MCF7): 4.75
pIC50 (HCT-116 [1]): 5.61
pIC50 (A549): 5.40
SMILES: O=C(CC1CCCCC1)Nc1ccc(Nc2nccc(NC3CCCC3)n2)cc1

pIC50 (MCF7): 5.01
pIC50 (HCT-116 [1]): 5.31
pIC50 (A549): 5.06
SMILES: Cn1cc(Nc2ccnc(Nc3ccc(NC(=O)Nc4ccc(Cl)c(C(F)(F)F)c4)cc3)n2)cn1

SMILES: c1nc2nc(Nc3ccc(N4CCOCC4)cc3)nc(NC3CCCCC3)c2[nH]1 [REVERSINE]
pIC50 (Aurora kinase C): 6.40

pIC50 (MCF7): 4.78
pIC50 (HCT-116 [1]): 5.60
pIC50 (A549): 5.47
SMILES: O=C(Cc1ccc(Nc2nccc(NC3CCCC3)n2)cc1)Nc1cccc(C(F)(F)F)c1

pIC50 (MCF7): 5.24
pIC50 (HCT-116 [1]): 5.26
pIC50 (A549): 5.08
SMILES: O=C(Cc1cccc(C(F)(F)F)c1)Nc1ccc(Nc2nccc(NC3CCCC3)n2)cc1

pIC50 (MCF7): 5.34
pIC50 (HCT-116 [1]): 5.37
pIC50 (A549): 5.14
SMILES: CCCNc1ccnc(Nc2ccc(NC(=O)Nc3ccc(Cl)c(C(F)(F)F)c3)cc2)n1

pIC50 (MCF7): 5.63
pIC50 (HCT-116 [1]): 5.60
pIC50 (A549): 5.23
SMILES: O=C(Nc1ccc(Nc2nccc(NC3CCCC3)n2)cc1)Nc1ccc(Cl)c(C(F)(F)F)c1

pIC50 (Aurora kinase B [2]): 6.53
pIC50 (MCF7): 4.69
inhibition (Aurora kinase B [12]): Active
inhibition [14]: Active
pIC50 (HCT-116 [1]): 5.88
pIC50 (A549): 4.92
pIC50 (Aurora kinase A): 6.51
inhibition [3]: 2.4%
inhibition [4]: < 1%
inhibition [5]: < 1%
SMILES: O=C(Cc1ccc(Nc2nccc(NC3CCCC3)n2)cc1)NC1CCCCC1
viability at 1 µM (HCT-116 [6]): 7.46%
Activity (HCT-116 [7]): 1.9%
Activity (HCT-116 [8]): Dose-dependent effect
viability at 0.5 µM (HCT-116 [9]): 58%
Activity (HCT-116 [10]): 45.64%
Activity (HCT-116 [11]): 15.45%
Activity (HCT-116 [13]): 22.54%
viability at 0.1 µM (HCT-116 [15]): 87.8%
Activity (HCT-116 [16]): 5.89%
Activity (HCT-116 [17]): 4.39%
Activity (HCT-116 [18]): 0.84%
Activity (HCT-116 [19]): Active
Activity (HCT-116 [20]): 3.99%
Activity (HCT-116 [21]): Active
Activity (HCT-116 [22]): 46.07%

pIC50 (MCF7): 4.98
pIC50 (HCT-116 [1]): 5.32
pIC50 (A549): 5.09
SMILES: O=C(Nc1ccc(Nc2nccc(Nc3cccc(Cl)c3)n2)cc1)Nc1ccc(Cl)c(C(F)(F)F)c1

pIC50 (MCF7): 4.89
pIC50 (HCT-116 [1]): 5.33
pIC50 (A549): 5.20
SMILES: O=C(Nc1ccc(Nc2nccc(Nc3ccc(Cl)cc3)n2)cc1)Nc1ccc(Cl)c(C(F)(F)F)c1

pIC50 (MCF7): < 4.30
pIC50 (HCT-116 [1]): < 4.30
pIC50 (A549): < 4.30
SMILES: O=C(Nc1ccc(Nc2nccc(Nc3ccccc3)n2)cc1)Nc1ccc(Cl)c(C(F)(F)F)c1

pIC50 (MCF7): 4.76
pIC50 (HCT-116 [1]): 5.83
pIC50 (A549): 5.41
SMILES: Cc1cc(Nc2cc(N3CCN(C)CC3)nc(Sc3ccc(NC(=O)C4CC4)cc3)n2)n[nH]1 [TOZASERTIB]

pIC50 (MCF7): 5.29
pIC50 (HCT-116 [1]): 5.62
pIC50 (A549): 5.31
SMILES: O=C(Nc1ccc(Nc2nccc(NC3CCCC3)n2)cc1)Nc1cccc(C(F)(F)F)c1

pIC50 (MCF7): 4.97
pIC50 (HCT-116 [1]): 5.23
pIC50 (A549): 5.13
SMILES: O=C(Nc1ccc(Nc2nccc(NC3CCCCC3)n2)cc1)Nc1ccc(Cl)c(C(F)(F)F)c1
